Laboratory results published in ChEMBL document CHEMBL4616595, “Targeted suppression of metastasis regulatory transcription factor SOX2 in various cancer cell lines using a sequence-specific designer pyrrole-imidazole polyamide” (Bioorg Med Chem, 2020).
The source made the active and inactive calls. The calls are words filed in the database; no cut-off is given here.

Key:
SOX2 promoter DNA [1] = experiment: Binding affinity to SOX2 promoter 5'-CTTTGTT-3' DNA in human SW620 cells assessed as upregulation of APC mRNA expression incubated for 48 hrs by qRT-PCR analysis; type: cell-based; settings: SW-620
SW-620 [2] = experiment: Up regulation of p21cip1 mRNA expression in human SW620 cells incubated for 48 hrs by qRT-PCR analysis; type: functional, cell-based
SOX2 promoter DNA [3] = experiment: Binding affinity to SOX2 promoter 5'-CTTTGTT-3' DNA in human SW620 cells assessed as down regulation of GRB2 mRNA expression incubated for 48 hrs by qRT-PCR analysis; type: cell-based; settings: SW-620
SW-620 [4] = experiment: Cytotoxicity against human SW620 cells assessed as reduction in cell viability incubated for 48 hrs by MTT assay; type: functional, cell-based
SW-620 [5] = experiment: Up regulation of FAS mRNA expression in human SW620 cells incubated for 48 hrs by qRT-PCR analysis; type: functional, cell-based
SOX2 promoter DNA [6] = experiment: Binding affinity to SOX2 promoter 5'-CTTTGTT-3' DNA in human SW620 cells assessed as down regulation of CDC42 mRNA expression incubated for 48 hrs by qRT-PCR analysis; type: cell-based; settings: SW-620
SOX2 promoter DNA [7] = experiment: Binding affinity to SOX2 promoter 5'-CTTTGTT-3' DNA in human SW620 cells assessed as down regulation of JAG1 mRNA expression at 2 uM incubated for 48 hrs by qRT-PCR analysis; type: cell-based; settings: SW-620
SOX2 promoter DNA [8] = experiment: Binding affinity to SOX2 promoter 5'-CTTTGTT-3' DNA in human SW620 cells assessed as upregulation of GSK3-beta mRNA expression incubated for 48 hrs by qRT-PCR analysis; type: cell-based; settings: SW-620
U2OS [9] = experiment: Cell cycle arrest in human U2OS cells assessed as reduction in accumulation at G2/M phase at 2 uM to 5 uM after 48 hrs by propidium iodide staining based flow cytometry analysis; type: functional
SOX2 promoter DNA [10] = experiment: Binding affinity to SOX2 promoter 5'-CTTTGTT-3' DNA in human SW620 cells assessed as down regulation of POU5F1 gene expression at 2 uM incubated for 48 hrs by Cy3-labelled cRNA-based microarray analysis; type: cell-based; settings: SW-620
SOX2 promoter DNA [11] = experiment: Binding affinity to SOX2 promoter 5'-CTTTGTT-3' DNA in human SW620 cells assessed as reduction in SOX2 protein level incubated for 48 hrs by immunostaining based FACS analysis; type: cell-based; settings: SW-620
SOX2 promoter DNA [12] = experiment: Binding affinity to SOX2 promoter 5'-CTTTGTT-3' DNA in human SW620 cells assessed as downregulation DVL3 mRNA expression incubated for 48 hrs by qRT-PCR analysis; type: cell-based; settings: SW-620
SOX2 promoter DNA [13] = experiment: Binding affinity to SOX2 promoter 5'-CTTTGTT-3' DNA in mouse Hepa1 cells assessed as reduction in SOX2 mRNA expression incubated for 48 hrs by qRT-PCR analysis; type: cell-based
MCF7 [14] = experiment: Antiproliferative activity against human MCF7 cells assessed as inhibition of cell proliferation incubated for 48 hrs by [3H]thymidine incorporation based scintillation counting method; type: functional
SOX2 promoter DNA [15] = experiment: Binding affinity to SOX2 promoter 5'-CTTTGTT-3' DNA in human SW620 cells assessed as down regulation of VIM gene expression at 2 uM incubated for 48 hrs by Cy3-labelled cRNA-based microarray analysis; type: cell-based; settings: SW-620
SOX2 promoter DNA [16] = experiment: Binding affinity to SOX2 promoter 5'-CTTTGTT-3' DNA in human SW620 cells assessed as down regulation of DOCK1 mRNA expression at 2 uM incubated for 48 hrs by qRT-PCR analysis; type: cell-based; settings: SW-620
SW-620 [17] = experiment: Up regulation of FASL mRNA expression in human SW620 cells incubated for 48 hrs by qRT-PCR analysis; type: functional, cell-based
SW-620 [18] = experiment: Antimigratory activity in human SW620 cells assessed as reduction in cell migration at 5 uM incubated for 24 hrs by Calcein AM staining based fluorescence microscopic analysis relative to untreated control; type: functional
SW-620 [19] = experiment: Up regulation of TP73 mRNA expression in human SW620 cells incubated for 48 hrs by qRT-PCR analysis; type: functional, cell-based
U2OS [20] = experiment: Cytotoxicity against human U2OS cells assessed as reduction in cell viability incubated for 48 hrs by MTT assay; type: functional, cell-based
SOX2 promoter DNA [21] = experiment: Binding affinity to SOX2 promoter 5'-CTTTGTT-3' DNA in human SW620 cells assessed as downregulation SALL4 mRNA expression incubated for 48 hrs by qRT-PCR analysis; type: cell-based; settings: SW-620
SOX2 promoter DNA [22] = experiment: Binding affinity to SOX2 promoter 5'-CTTTGTT-3' DNA in human DU145 cells assessed as reduction in SOX2 mRNA expression incubated for 48 hrs by qRT-PCR analysis; type: cell-based; settings: DU-145
SOX2 promoter DNA [23] = experiment: Binding affinity to SOX2 promoter 5'-CTTTGTT-3' DNA in human SW620 cells assessed as down regulation of stemness associated PTCH1 mRNA expression at 2 uM incubated for 48 hrs by qRT-PCR analysis; type: cell-based; settings: SW-620
SOX2 promoter DNA [24] = experiment: Binding affinity to SOX2 promoter 5'-CTTTGTT-3' DNA in human SW620 cells assessed as down regulation of PROM1 gene expression at 2 uM incubated for 48 hrs by Cy3-labelled cRNA-based microarray analysis; type: cell-based; settings: SW-620
SOX2 promoter DNA [25] = experiment: Binding affinity to SOX2 promoter 5'-CTTTGTT-3' DNA in mouse EG7 cells assessed as reduction in SOX2 mRNA expression incubated for 48 hrs by qRT-PCR analysis; type: cell-based
MCF7 [26] = experiment: Cell cycle arrest in human MCF7 cells assessed as reduction in accumulation at G2/M phase at 2 uM to 5 uM after 48 hrs by propidium iodide staining based flow cytometry analysis; type: functional
SOX2 promoter DNA [27] = experiment: Binding affinity to SOX2 promoter 5'-CTTTGTT-3' DNA in human SW620 cells assessed as down regulation of VIM mRNA expression at 2 uM incubated for 48 hrs by qRT-PCR analysis; type: cell-based; settings: SW-620
NHDF = experiment: Cytotoxicity against HDF cells assessed as effect on cell viability measured after 48 hrs by MTT assay; type: cell-based; settings: human
SOX2 promoter DNA [28] = experiment: Binding affinity to SOX2 promoter 5'-CTTTGTT-3' DNA in human MCF7 cells assessed as reduction in SOX2 protein level incubated for 48 hrs by immunostaining based FACS analysis; type: cell-based
MCF7 [29] = experiment: Cytotoxicity against human MCF7 cells assessed as reduction in cell viability incubated for 48 hrs by MTT assay; type: functional, cell-based
MKN-45 = experiment: Antiproliferative activity against human MKN45 cells assessed as inhibition of cell proliferation incubated for 48 hrs by [3H]thymidine incorporation based scintillation counting method; type: functional
SOX2 promoter DNA [30] = experiment: Binding affinity to SOX2 promoter 5'-CTTTGTT-3' DNA in human SW620 cells assessed as reduction in SOX2 mRNA expression incubated for 48 hrs by qRT-PCR analysis; type: cell-based; settings: SW-620
SOX2 promoter DNA [31] = experiment: Binding affinity to SOX2 promoter 5'-CTTTGTT-3' DNA in mouse GL261 cells assessed as reduction in SOX2 mRNA expression incubated for 48 hrs by qRT-PCR analysis; type: cell-based
SOX2 promoter DNA [32] = experiment: Binding affinity to SOX2 promoter 5'-CTTTGTT-3' DNA in human SW620 cells assessed as downregulation of SNAIL2 mRNA expression at 2 uM incubated for 48 hrs by qRT-PCR analysis; type: cell-based; settings: SW-620

## CC(=O)Nc1cc(C(=O)Nc2cc(C(=O)Nc3cc(C(=O)NCCC(=O)Nc4cn(C)c(C(=O)Nc5cc(C(=O)NCCCC(=O)Nc6cc(C(=O)Nc7cc(C(=O)NCCC(=O)Nc8cc(C(=O)Nc9cc(C(=O)Nc%10cn(C)c(C(=O)NCCCN(C)C)n%10)n(C)c9)n(C)c8)n(C)c7)n(C)c6)n(C)c5)n4)n(C)c3)n(C)c2)n(C)c1
SOX2 promoter DNA [1]
  Activity: Active
SW-620 [2]
  Activity: Active
SOX2 promoter DNA [3]
  Activity: Active
SW-620 [4]
  Activity: Dose-dependent effect
SW-620 [5]
  Activity: Active
SOX2 promoter DNA [6]
  Activity: Active
SOX2 promoter DNA [7]
  Activity: Active
SOX2 promoter DNA [8]
  Activity: Active
U2OS [9]
  Activity: Active
SOX2 promoter DNA [10]
  Activity: Active
SOX2 promoter DNA [11]
  Activity: Dose-dependent effect
SOX2 promoter DNA [12]
  Activity: Active
SOX2 promoter DNA [13]
  Activity: Active
MCF7 [14]
  inhibition: Dose-dependent effect
SOX2 promoter DNA [15]
  Activity: Active
SOX2 promoter DNA [16]
  Activity: Active
SW-620 [17]
  Activity: Active
SW-620 [18]
  fold change (FC): 5
SW-620 [19]
  Activity: Active
U2OS [20]
  Activity: Dose-dependent effect
SOX2 promoter DNA [21]
  Activity: Active
SOX2 promoter DNA [22]
  Activity: Active
SOX2 promoter DNA [23]
  Activity: Active
SOX2 promoter DNA [24]
  Activity: Active
SOX2 promoter DNA [25]
  Activity: Active
MCF7 [26]
  Activity: Active
SOX2 promoter DNA [27]
  Activity: Active
NHDF
  Activity: Non-Toxic
SOX2 promoter DNA [28]
  Activity: Dose-dependent effect
MCF7 [29]
  Activity: Dose-dependent effect
MKN-45
  inhibition: Dose-dependent effect
SOX2 promoter DNA [30]
  Activity: Active
SOX2 promoter DNA [31]
  Activity: Active
SOX2 promoter DNA [32]
  Activity: Active
